Measured values reported in patent US20120142609A1, “NON HUMAN ANIMAL MODELS FOR INCREASED RETINAL VASCULAR PERMEABILITY” (priority 2009, published 2012).

Test system: Müller glial cells
Experiment: Osmotic Müller cell swelling in acutely isolated retinal slices under hypotonic challenge
Format: cell-based, mouse
Conditions: for effect on osmotic swelling of Müller cells (FIG. 3C): hypotonic challenge
Description: Müller cell swelling: To determine volume changes of Müller glial cells evoked by hypotonic stress, the cross-sectional area of glial cell somata in the inner nuclear layer of retinal slices was measured. Acutely isolated slices (thickness, 1 mm) were prepared from untreated control eyes and from the detached retinal area of operated eyes from C57BL/6 and Dp71-null mice, placed in a perfusion chamber and loaded with the vital dye Mitotracker Orange (10 μM). This dye is selectively taken up by Müller glial cells whereas retinal neurons, astrocytes, and microglial cells remain unstained. The stock solution of the dye was prepared in dimethylsulfoxide and resolved in saline. The slices were examined with a confocal laser scanning microscope LSM 510 Meta (Zeiss, Oberkochen, Germany). Mitotracker Orange was excited at 543 nm, and emission was recorded with a 560 nm long-pass filter. To assure that the maximum soma areas were precisely recorded, the focal plane was continuously adjusted in the course of the experiments.
A gravity-fed system with multiple reservoirs was used to perfuse the recording chamber continuously with extracellular solution; the hypotonic solution and test substances were added by rapid change of the perfusate. The extracellular solution consisted of (in mM) […], 3 KCl, 2 CaCl2, 1 MgCl2, 10 HEPES, and 11 glucose, adjusted to pH 7.4 with Tris. The hypotonic solution (60% of control osmolarity) was made up by adding distilled water. BaCl2 (1 mM) was preincubated for 10 minutes in extracellular solution before application within hypotonic solution. Blocking substances were preincubated for 15 to 45 minutes, and adenosine was administered simultaneously with the hypotonic solution. Swelling experiments were performed at room temperature.
To determine the extent of glial soma swelling, the cross-sectional area of Mitotracker Orange-stained cell bodies in the inner nuclear layer of retinal slices was measured off-line using the image analysis software of the LSM. Bar diagrams display the mean (+SEM) cross-sectional area of cell somata that was measured after 4-minute perfusion with hypotonic solution, in percent of the soma area measured before osmotic challenge (100%).

[1] = control retina from Dp71-null mice

Structure (SMILES): O=C(CBr)c1ccc(Br)cc1 [4-bromophenacyl bromide]
- cross-sectional area of Müller cell somata after 4-minute perfusion with hypotonic solution, in percent of the soma area before osmotic challenge (Müller cells from Dp71-null mice, 300 μM, preincubated, hypotonic solution 60% of control osmolarity): 103.3±2.1%
- effect on osmotic swelling of Müller cells (FIG. 3C) [1]: blocked the swelling

Structure (SMILES): [Ba+2].[Cl-].[Cl-] [Ba^2+, barium chloride]
- effect on Müller cell soma area under hypotonic challenge (FIG. 3B) [1]: no effect
- effect on Müller cell soma area under hypotonic challenge (FIG. 3B) (control retina from wt mice): induced a swelling
- cross-sectional area of Müller cell somata after 4-minute perfusion with hypotonic solution, in percent of the soma area before osmotic challenge (slices from control retinas of C57BL/6 (wt) mice, BaCl2 1 mM, 102.0±1.0% without Ba2+): 111.5±1.6%
- cross-sectional area of Müller cell somata after 4-minute perfusion with hypotonic solution, in percent of the soma area before osmotic challenge (untreated Dp71-null mice, BaCl2 1 mM, 118.0±2.3% without Ba2+): 122.3+3.6%

Structure (SMILES): Nc1ncnc2c1ncn2[C@@H]1O[C@H](CO)[C@@H](O)[C@H]1O [adenosine]
- effect on osmotic swelling of Müller cells (FIG. 3C) [1]: blocked the swelling
- cross-sectional area of Müller cell somata after 4-minute perfusion with hypotonic solution, in percent of the soma area before osmotic challenge (untreated retinas from Dp71-null mice, adenosine 10 μM applied with the hypotonic solution (60% of control osmolarity), 120.3±3.8% without adenosine): 103.2±2.2%

Structure (SMILES): COc1ccc2c(c1)c(CC(=O)O)c(C)n2C(=O)c1ccc(Cl)cc1 [indomethacin]
- cross-sectional area of Müller cell somata after 4-minute perfusion with hypotonic solution, in percent of the soma area before osmotic challenge (Müller cells from Dp71-null mice, 10 μM, preincubated, hypotonic solution 60% of control osmolarity): 104.4±1.6%
- effect on osmotic swelling of Müller cells (FIG. 3C) [1]: blocked the swelling
